Test results taken from ChEMBL document CHEMBL1201862, “PubChem BioAssay data set” (2004).
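Cells were grown in 96-well plates and exposed to each compound for 48 hours at five concentrations; endpoints were interpolated linearly between bracketing concentrations, or set to the highest concentration if not reached. GI50 = concentration required for 50% inhibition of growth.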 The source made the active and inactive calls. No stated cut-off is given here; in the data, active = GI50 up to about 1.1 µM and inactive = higher.

Experiments:
Experiment in all cases: DTP human tumour cell line panel, 48 h
[1] = tested on: SF-295
[2] = tested on: DMS-273
[3] = tested on: SF-539
[4] = tested on: MOLT-4
[5] = tested on: HCT-15
[6] = tested on: CAKI-1
[7] = tested on: A549
[8] = tested on: DLD-1
[9] = tested on: HL-60
[10] = tested on: KM-20L2
[11] = tested on: LXFL 529
[12] = tested on: HOP-62
[13] = tested on: SW-620
[14] = tested on: XF498
[15] = tested on: HOP-92
[16] = tested on: RXF 631
[17] = tested on: RXF 393
[18] = tested on: UACC-62
[19] = tested on: SK-OV-3
[20] = tested on: EKVX
[21] = tested on: SNB-78
[22] = tested on: TK-10
[23] = tested on: 786-0
[24] = tested on: SK-MEL-2
[25] = tested on: U-251
[26] = tested on: SK-MEL-28
[27] = tested on: UO-31
[28] = tested on: K562
[29] = tested on: OVCAR-4
[30] = tested on: M19-MEL
[31] = tested on: SK-MEL-5
[32] = tested on: HOP-18
[33] = tested on: SF-268
[34] = tested on: ACHN
[35] = tested on: NCI-H23
[36] = tested on: OVCAR-8
[37] = tested on: NCI-H460
[38] = tested on: UACC-257
[39] = tested on: SNB-19
[40] = tested on: IGROV-1
[41] = tested on: CCRF-CEM
[42] = tested on: COLO 205
[43] = tested on: OVCAR-3
[44] = tested on: HT-29
[45] = tested on: DMS-114
[46] = tested on: A498
[47] = tested on: SN12C
[48] = tested on: OVCAR-5
[49] = tested on: M14
[50] = tested on: RPMI-8226
[51] = tested on: KM12
[52] = tested on: LOX IMVI
[53] = tested on: NCI-H522
[54] = tested on: HCT-116
[55] = tested on: SR
[56] = tested on: Malme-3M
[57] = tested on: HCC 2998
[58] = tested on: SNB-75
[59] = tested on: NCI-H226

Measured: GI50

O=[N+]([O-])c1ccccc1C1N2CCCCC2[C@@H]2c3[nH]c4ccccc4c3CCN12 (stereo partly specified)
inactive: [1] 13.8 µM | [2] 10.9 µM | [3] 12.2 µM | [4] 5.78 µM | [6] 14 µM | [7] 9.84 µM | [8] 14.2 µM | [9] 3.7 µM | [10] 12.4 µM | [11] 10.8 µM | [12] 14.8 µM | [13] 11.4 µM | [14] 16.9 µM | [15] 15.1 µM | [16] 13.2 µM | [17] 12.6 µM | [18] 3.78 µM | [19] 17.9 µM | [20] 20.7 µM | [21] 15.3 µM | [22] 16.5 µM | [23] 16.1 µM | [24] 13.6 µM | [25] 15.6 µM | [26] 13.7 µM | [27] 11.3 µM | [28] 3.57 µM | [29] 17.3 µM | [30] 6.25 µM | [31] 13.4 µM | [32] 36.5 µM | [33] 11.6 µM | [34] 12.4 µM | [35] 14.4 µM | [36] 16.8 µM | [37] 17.7 µM | [38] 13.7 µM | [39] 14.9 µM | [40] 15.6 µM | [41] 10.4 µM | [42] 13.2 µM | [43] 19.8 µM | [44] 7.53 µM | [45] 4.34 µM | [46] 12.6 µM | [47] 13.6 µM | [48] 19.1 µM | [49] 13.7 µM | [50] 10.9 µM
10.9 µM: [5]

Nc1nc(S)nc(C(=O)Nc2ccc(Cl)c(Cl)c2)c1-c1ccc(Cl)cc1
> 100 µM: [5]
inactive: [51] > 100 µM | [1] > 100 µM | [3] > 100 µM | [4] 14.7 µM | [52] > 100 µM | [6] > 100 µM | [7] > 100 µM | [8] > 100 µM | [53] > 100 µM | [9] > 100 µM | [10] > 100 µM | [11] > 100 µM | [12] > 100 µM | [13] > 100 µM | [14] > 100 µM | [15] 93.1 µM | [16] > 100 µM | [54] 45.4 µM | [17] > 100 µM | [18] > 100 µM | [19] > 100 µM | [20] > 100 µM | [22] > 100 µM | [23] > 100 µM | [55] 76.6 µM | [25] > 100 µM | [56] > 100 µM | [26] > 100 µM | [27] > 100 µM | [28] 90.8 µM | [29] > 100 µM | [30] > 100 µM | [31] > 100 µM | [32] > 100 µM | [33] > 100 µM | [34] > 100 µM | [35] > 100 µM | [36] > 100 µM | [37] > 100 µM | [38] > 100 µM | [39] > 100 µM | [40] > 100 µM | [41] > 100 µM | [42] > 100 µM | [43] > 100 µM | [44] 71.4 µM | [45] > 100 µM | [57] > 100 µM | [46] > 100 µM | [47] > 100 µM | [48] > 100 µM | [58] > 100 µM | [59] > 100 µM | [49] 87.1 µM | [50] 62.7 µM
